The target of this experiment is BTK (Homo sapiens (Human), UniProt Q06187). Briefly: Btk in vitro inhibitory activity (one of Method A TR-FRET, Method B electrophoretic mobility shift, Method C radiometric filter binding). The experiment is classed as biochemical. For orientation: In EMSA bound probe runs differently from free probe, usually more slowly.
Setting [1] is: determined using one of the methods of Example 355a, 355b and 355c, read-out: BTK IC50.

Consider 28 molecules from patent US9656988B2 (Pharmacyclics LLC, priority 2013, dated 2017).

Molecules are shown by their SMILES. pIC50: −log10 of the molar value. Where two headings read alike, the source gives them in different places.

BTK, sequence (Q06187 whole entry): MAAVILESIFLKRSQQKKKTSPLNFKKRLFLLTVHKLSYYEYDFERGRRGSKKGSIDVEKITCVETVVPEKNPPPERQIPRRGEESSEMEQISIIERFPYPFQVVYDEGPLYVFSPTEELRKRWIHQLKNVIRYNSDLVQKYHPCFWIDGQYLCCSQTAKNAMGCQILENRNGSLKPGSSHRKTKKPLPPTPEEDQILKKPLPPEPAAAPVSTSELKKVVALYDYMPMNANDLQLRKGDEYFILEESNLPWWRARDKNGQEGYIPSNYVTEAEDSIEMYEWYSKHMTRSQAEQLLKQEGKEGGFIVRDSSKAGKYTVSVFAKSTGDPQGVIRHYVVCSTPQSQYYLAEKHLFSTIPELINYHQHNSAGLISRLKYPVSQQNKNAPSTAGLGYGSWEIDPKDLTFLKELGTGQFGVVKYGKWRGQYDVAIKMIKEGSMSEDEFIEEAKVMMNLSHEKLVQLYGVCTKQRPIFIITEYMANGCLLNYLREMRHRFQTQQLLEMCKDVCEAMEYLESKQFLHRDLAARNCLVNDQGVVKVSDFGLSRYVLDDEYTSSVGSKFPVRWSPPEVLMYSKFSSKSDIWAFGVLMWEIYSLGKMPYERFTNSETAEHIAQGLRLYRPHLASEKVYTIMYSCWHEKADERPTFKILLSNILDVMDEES

Regarding `COc1cc(Nc2nc(N3CCC[C@@H](NC(=O)N(C)C)C3)cnc2C(N)=O)ccc1Cl` [Example 182, (R)-3-(4-chloro-3-methoxyphenylamino)-5-(3-(3,3-dimethylureido)piperidin-1-yl)pyrazine-2-carboxamide], the negative-log IC50 (pIC50) (Btk (IC50)) was 6.00 to 7.00 and the negative logarithm of the IC50 (pIC50) under setting [1] was 6.00 to 7.00.

In the case of `CN1CCN([C@@H]2CCCN(c3cnc(C(N)=O)c(Nc4ccc(C5(C#N)CCN(C6CCC6)CC5)cc4)n3)C2)C1=O` [Example 273, (R)-3-(4-(4-cyano-1-cyclobutylpiperidin-4-yl)phenylamino)-5-(3-(3-methyl-2-oxoimidazolidin-1-yl)piperidin-1-yl)pyrazine-2-carboxamide], the negative-log IC50 (pIC50) by setting is: under setting [1], more than 8.00; (read-out: Btk (IC50)) more than 8.00.

Regarding `NC(=O)c1nnc(N2CCC[C@@H](N3CCCC3=O)C2)nc1Nc1ccc(C(=O)N2CCOCC2)cc1` [Example 44, (R)-5-(4-(morpholine-4-carbonyl)phenylamino)-3-(3-(2-oxopyrrolidin-1-yl)piperidin-1-yl)-1,2,4-triazine-6-carboxamide], the negative logarithm of the IC50 (pIC50) under setting [1] is 7.00 to 8.00.

With `Cc1cc(C(=O)N[C@@H]2CCCN(c3nnc(C(N)=O)c(Nc4ccc(C(=O)N5CCOCC5)cc4)n3)C2)no1` [Example 91, (R)—N-(1-(6-carbamoyl-5-(4-(morpholine-4-carbonyl)phenylamino)-1,2,4-triazin-3-yl)piperidin-3-yl)-5-methylisoxazole-3-carboxamide], the pIC50 by setting is: (Btk (IC50)) 7.00 to 8.00; under setting [1], 7.00 to 8.00.

Consider `NC(=O)c1nnc(N2CCC[C@@H](NC(=O)c3ncccn3)C2)nc1Nc1ccc(C(=O)N2CCOCC2)cc1` [Example 15, (R)-5-(4-(morpholine-4-carbonyl)phenylamino)-3-(3-(pyrimidine-2-carboxamido)piperidin-1-yl)-1,2,4-triazine-6-carboxamide], for which the negative logarithm of the IC50 (pIC50) under setting [1] was 7.00 to 8.00.

Turning to `CCOCCOc1ccc(Nc2nc(N3CCC[C@@H](NC(=O)c4ccc(OC)cc4)C3)cnc2C(N)=O)cc1` [Example 113, (R)-3-(4-(2-ethoxyethoxy)phenylamino)-5-(3-(4-methoxybenzamido)piperidin-1-yl)pyrazine-2-carboxamide], the pIC50 under setting [1] is 7.00 to 8.00.

In the case of `CCS(=O)(=O)N[C@@H]1CCCN(c2cnc(C(N)=O)c(Nc3ccc(C4CCN(C5CCCC5)CC4)cc3)n2)C1` [Example 301, (R)-3-(4-(1-cyclopentylpiperidin-4-yl)phenylamino)-5-(3-(ethylsulfonamido)piperidin-1-yl)pyrazine-2-carboxamide], under setting [1], the pIC50 is 7.00 to 8.00.

In the case of `NC(=O)c1ncc(N2CCC[C@@H](NC(=O)c3ccc(-c4ccccc4)cc3)C2)nc1Nc1ccc(C2CCN(C3CC3)CC2)cc1` [Example 318, (R)-5-(3-biphenyl-4-ylcarboxamidopiperidin-1-yl)-3-(4-(1-cyclopropylpiperidin-4-yl)phenylamino)pyrazine-2-carboxamide], the pIC50 under setting [1] was 7.00 to 8.00.

Regarding `C[C@@H]1[C@H](N2CCN(C)C2=O)CCCN1c1cnc(C(N)=O)c(Nc2ccc(C3(C)CCN(C4CCCC4)CC3)cc2)n1` [Example 253, 3-(4-(1-cyclopentyl-4-methylpiperidin-4-yl)phenylamino)-5-((2R,3R)-2-methyl-3-(3-methyl-2-oxoimidazolidin-1-yl)piperidin-1-yl)pyrazine-2-carboxamide], the pIC50 under setting [1] was more than 8.00.

For `NC(=O)c1nnc(N2CCC[C@@H](NC(=O)c3ccc(F)cc3)C2)nc1Nc1ccc(C(=O)N2CCOCC2)cc1` [Example 9, (R)-3-(3-(4-fluorobenzamido)piperidin-1-yl)-5-(4-(morpholine-4-carbonyl)phenylamino)-1,2,4-triazine-6-carboxamide], the pIC50 under setting [1] was more than 8.00.

For `CN(C(=O)N[C@@H]1CCCN(c2cnc(C(N)=O)c(NC3CCOCC3)n2)C1)c1cc(Cl)cc(C(F)(F)F)c1` [Example 353, (R)-5-(3-(3-(3-chloro-5-(trifluoromethyl)phenyl)-3-methylureido)piperidin-1-yl)-3-(tetrahydro-2H-pyran-4-ylamino)pyrazine-2-carboxamide], under setting [1], the negative-log IC50 (pIC50) is 5.00 to 6.00.

On to `NC(=O)c1nnc(N2CC[C@@H](NC(=O)c3ccccc3)C2)nc1Nc1ccc(C(=O)N2CCOCC2)cc1` [Example 50, (R)-3-(3-benzamidopyrrolidin-1-yl)-5-(4-(morpholine-4-carbonyl)phenylamino)-1,2,4-triazine-6-carboxamide], for which, under setting [1], the negative logarithm of the IC50 (pIC50) was 6.00 to 7.00.

On to `CC(C)(C)c1ccc(C(=O)N[C@@H]2CCCN(c3nnc(C(N)=O)c(Nc4ccc(S(C)(=O)=O)cc4)n3)C2)cc1` [Example 55, (R)-3-(3-(4-tert-butylbenzamido)piperidin-1-yl)-5-(4-(methylsulfonyl)phenylamino)-1,2,4-triazine-6-carboxamide], for which the pIC50 was 7.00 to 8.00. Further, the pIC50 under setting [1] was more than 8.00.

In the case of `NC(=O)c1nnc(N2CCC[C@@H](Oc3nccc4ccccc34)C2)nc1Nc1ccc(C(=O)N2CCOCC2)cc1` [Example 45, (R)-3-(3-(isoquinolin-1-yloxy)piperidin-1-yl)-5-(4-(morpholine-4-carbonyl)phenylamino)-1,2,4-triazine-6-carboxamide], the pIC50 under setting [1] was 6.00 to 7.00.

For `CC(C)(C)c1ccc(C(=O)N[C@@H]2CCCN(c3nnc(C(N)=O)c(Nc4ccc(-c5ncccn5)cc4)n3)C2)cc1` [Example 56, (R)-3-(3-(4-tert-butylbenzamido)piperidin-1-yl)-5-(4-(pyrimidin-2-yl)phenylamino)-1,2,4-triazine-6-carboxamide], the pIC50 under setting [1] was 6.00 to 7.00.

Turning to `CCC(=O)N[C@@H]1CCCN(c2cnc(C(N)=O)c(Nc3ccc(C4CCN(C5CCCC5)CC4)cc3)n2)C1` [Example 296, (R)-3-(4-(1-cyclopentylpiperidin-4-yl)phenylamino)-5-(3-propionamidopiperidin-1-yl)pyrazine-2-carboxamide], the pIC50 by setting is: under setting [1], more than 8.00; (read-out: Btk (IC50)) more than 8.00.

On to `CC(=O)N1CCC(c2ccc(Nc3nc(N4CCC[C@@H](NC(=O)N5CCCCC5)C4)nnc3C(N)=O)cc2)CC1` [Example 338, (R)-5-(4-(1-acetylpiperidin-4-yl)phenylamino)-3-(3-(piperidine-1-carboxamido)piperidin-1-yl)-1,2,4-triazine-6-carboxamide], for which the negative logarithm of the IC50 (pIC50) reads like this: under setting [1], more than 8.00; (read-out: Btk (IC50)) more than 8.00.

As to `C[C@@H]1[C@H](NC(=O)N(C)C)CCCN1c1cnc(C(N)=O)c(Nc2ccc(C3CCN(C4CC4)CC3)cc2)n1` [Example 237, 3-(4-(1-cyclopropylpiperidin-4-yl)phenylamino)-5-((2R,3R)-3-(3,3-dimethylureido)-2-methylpiperidin-1-yl)pyrazine-2-carboxamide], the pIC50 (Btk (IC50)) is more than 8.00 and the pIC50 under setting [1] was more than 8.00.

For the molecule `CN(C(=O)N[C@@H]1CCCN(c2nnc(C(N)=O)c(Nc3ccc(C(=O)N4CCOCC4)cc3)n2)C1)c1ccccc1` [Example 39, (R)-3-(3-(3-methyl-3-phenylureido)piperidin-1-yl)-5-(4-(morpholine-4-carbonyl)phenylamino)-1,2,4-triazine-6-carboxamide], under setting [1], the pIC50 was 7.00 to 8.00.

For `CS(=O)(=O)c1ccc(Nc2nc(N3CCC[C@@H](NC(=O)N4CCCCC4)C3)cnc2C(N)=O)cc1` [Example 145, (R)-3-(4-(methylsulfonyl)phenylamino)-5-(3-(piperidine-1-carboxamido)piperidin-1-yl)pyrazine-2-carboxamide], the negative-log IC50 (pIC50) was more than 8.00 under setting [1] and more than 8.00 (read-out: Btk (IC50)).

Consider `NC(=O)c1ncc(N2CCC[C@@H](NC(=O)c3ccc4ccccc4c3)C2)nc1Nc1ccc(C2CCN(C3CC3)CC2)cc1` [Example 317, (R)-5-(3-(2-naphthamido)piperidin-1-yl)-3-(4-(1-cyclopropylpiperidin-4-yl)phenylamino)pyrazine-2-carboxamide], for which the pIC50 under setting [1] was 7.00 to 8.00.

Turning to `NC(=O)c1nnc(N2CCC[C@@H](NC(=O)c3nc4ccccc4s3)C2)nc1Nc1ccc(C(=O)N2CCOCC2)cc1` [Example 94, (R)—N-(1-(6-carbamoyl-5-(4-(morpholine-4-carbonyl)phenylamino)-1,2,4-triazin-3-yl)piperidin-3-yl)benzo[d]thiazole-2-carboxamide], under “read-out: Btk (IC50)”, the negative logarithm of the IC50 (pIC50) was more than 8.00.

In the case of `COc1ccc(C(=O)N[C@@H]2CCCN(c3cnc(C(N)=O)c(Nc4ccc(N5CCS(=O)(=O)CC5)cc4)n3)C2)cc1` [Example 161, (R)-5-(3-(4-methoxybenzamido)piperidin-1-yl)-3-(4-(1,1-dioxothiomorpholino)phenylamino)pyrazine-2-carboxamide], the negative-log IC50 (pIC50) runs as follows: under setting [1], more than 8.00; (read-out: Btk (IC50)) more than 8.00.

Turning to `CC(C)(C)c1ccc(C(=O)N[C@@H]2CCCN(c3cnc(C(N)=O)c(Nc4ccc(C(=O)N5CCOCC5)cc4)n3)C2)cc1` [Example 73, (R)-5-(3-(4-tert-butylbenzamido)piperidin-1-yl)-3-(4-(morpholine-4-carbonyl)phenylamino)pyrazine-2-carboxamide], the negative logarithm of the IC50 (pIC50) under setting [1] is more than 8.00.

With `Cc1cccc(Nc2nc(N3CCC[C@@H](NC(=O)c4ccc(C(C)(C)C)cc4)C3)nnc2C(N)=O)c1` [Example 54, (R)-3-(3-(4-tert-butylbenzamido)piperidin-1-yl)-5-(m-tolylamino)-1,2,4-triazine-6-carboxamide], the pIC50 under setting [1] is 5.00 to 6.00.

As to `CN(C)C(=O)N[C@@H]1CCCN(c2cnc(C(N)=O)c(Nc3ccc(C4(CN)CCCC4)cc3)n2)C1` [Example 204, (R)-3-(4-(1-(aminomethyl)cyclopentyl)phenylamino)-5-(3-(3,3-dimethylureido)piperidin-1-yl)pyrazine-2-carboxamide], the pIC50 is 7.00 to 8.00 under setting [1] and 7.00 to 8.00 (read-out: Btk (IC50)).

`N#CC1(C(=O)N[C@@H]2CCCN(c3nnc(C(N)=O)c(Nc4ccc(C(=O)N5CCOCC5)cc4)n3)C2)CC1` [Example 28, (R)-3-(3-(1-cyanocyclopropanecarboxamido)piperidin-1-yl)-5-(4-(morpholine-4-carbonyl)phenylamino)-1,2,4-triazine-6-carboxamide]: the negative-log IC50 (pIC50) under setting [1] was 7.00 to 8.00.

As for `CN(C)C(=O)N1CCC[C@@H]2[C@H]1CCCN2c1cnc(C(N)=O)c(Nc2ccc(C3CCN(C4CCCC4)CC3)cc2)n1` [Example 289, (4aR,8aR)-5-(5-carbamoyl-6-(4-(1-cyclopentylpiperidin-4-yl)phenylamino)pyrazin-2-yl)-N,N-dimethyloctahydro-1,5-naphthyridine-1(2H)-carboxamide], under setting [1], the negative-log IC50 (pIC50) is 7.00 to 8.00.

Broadly, the pIC50 is −log10 of the IC50, conventionally taken in molar units.
